Reference: patent publication US8691947B2, “Materials related to sodium/potassium adenosine triphosphatase and Src” (The University of Toledo, priority 2010, dated 2014)
“Also recorded” adds a separate entry of the source.

What was measured:
[1] = target: T1, Na/K-ATPase-associated Src (Sus scrofa, UniProt P05024); type: biochemical, pig; settings: for Effect on activity of Na/K-ATPase-associated Src, Na/K-ATPase stabilized in E1P: NEM and AMP-PNP used together; for Effect on activity of Na/K-ATPase-associated Src: purified pig kidney Na/K-ATPase treated with modifier or ouabain, incubated with purified Src
T1 construct: The Na/K-ATPase was purified from pig kidney and the purified Src was purchased from Upstate; tissue Upstate (for the Src chain); host or cells: pig kidney
Experimental: The Na/K-ATPase was purified from pig kidney and the purified Src was purchased from Upstate. To stabilize the Na/K-ATPase in the E2P conformation, the purified Na/K-ATPase was treated by two different fluoride compounds (BeF and AIF) as described, washed and then incubated with Src. The ouabain-treated and control Na/K-ATPase/Src complex was used as positive and negative controls for the experiments, respectively. Similarly, the Na/K-ATPase was stabilized at the E1P state by NEM/AMPPNP as described and then analyzed.
The purified Na/K-ATPase was subjected to chymotrypsin or trypsin digestion as described. The digested enzyme was washed and assayed for Na/K-ATPase activity. The enzyme preparations with less than 25% activity was incubated with Src in 150 mM Na^+ medium in the presence or absence of 10 μM ouabain. The non-digested enzyme was used as control. […] Quantitative data was presented as mean±S.E. of at least 3 separate experiments. *, p<0.05; **, p<0.01.
The inventors utilized different chemical modifiers to stabilize the Na/K-ATPase in distinct conformational states and then assessed the conformation-dependent effect of Na/K-ATPase on Src. Fluoride compounds such as aluminum fluoride and beryllium fluoride, can interact with Na/K-ATPase as phosphate analogues, and stabilize the enzyme as well as other P-type ATPase in the E2P conformation.

[2] = target: T2, Na/K-ATPase/Src complex (Homo sapiens, UniProt P12931); assay: Ouabain-induced Src activation (Tyr418 autophosphorylation, Western blot) in a mixture of purified Na/K-ATPase and Src; type: biochemical; settings: Src preincubated with peptide 15 min, pig kidney Na/K-ATPase 15 min, 1 μM ouabain 5 min, 2 mM ATP/Mg2+
T2 construct: purchased
Experimental: FIG. 4. […] CD2C2 peptide was incubated with purified Src (the amount was indicated as molar ratio of Src/Cd2C2) for 15 minutes in PBS solution. Then purified Na/K-ATPase from pig kidney was added for another 15 minutes. After that, ouabain was added to the reaction system for 5 minutes, followed by addition of 2 mM Mg2+/ATP. The Src activity was determined by Western blot probing with anti-phosphorylated Tyr418. A representative Western blot was shown, and quantitative data was presented as mean±S.E. of at 3 separate experiments. **, p<0.01.
FIG. 7B, antagonizing ouabain-induced Src activation by CD2C2. Src was preincubated with indicated amount of CD2C2 peptide for 15 min in PBS. […] Then Src autophosphorylation was detected in the presence of 2 mM ATP/Mg^2+. […]
To support this notion, the inventors checked whether the peptides derived from C-terminus of CD2 can attenuate the binding between CD2 and Src. […] Then pull-down pellets were analyzed by Western blot with antibody against Src. […] Then Src autophosphorylation was detected in the presence of 2 mM ATP/Mg^2+. […]
The inventors incubated the test chemicals with commercially available purified Src for 15 minutes in PBS solution. […] The Src activity was determined by Western blot probing with anti-phosphorylated Tyr418. […] Both peptides were incubated in a 96 well plate, and the FRET energy transfer was measured using a spectra meter. […]

[3] = target: Src SH2 domain (Homo sapiens, UniProt P12931); assay: GST pull-down of GST-CD2 binding to Src in the absence and presence of peptides; settings: peptide incubated with GST-CD2 and Src for 15 min, Western blot with anti-Src antibody
Experimental: CD2C2 was added to a mixture of Src and GST-CD2 at indicated concentrations. Src in the pull-down products was analyzed by Western blot with anti-Src antibody.
To support this notion, the inventors checked whether the peptides derived from C-terminus of CD2 can attenuate the binding between CD2 and Src. Purified GST-CD2 was incubated with Src in the absence and presence of peptides for 15 min. Then pull-down pellets were analyzed by Western blot with antibody against Src. […] If CD2C2 peptide disrupts the SH2/CD2 interaction, the inventors expect that CD2C2 may abolish CTS-induced Src activation. To test that, the inventors preincubated Src with indicated amount of CD2 peptides for 15 min in PBS. Then purified pig kidney Na/K-ATPase was added for another 15 min. 1 μM ouabain was added to mixture for 5 min. Then Src autophosphorylation was detected in the presence of 2 mM ATP/Mg^2+. […] Therefore, to search for new antagonists, the inventors will perform the following four sets of experiments.

[4] = tested on: LLC-PK1 cells; assay: Western blot of Src and ERKs in LLC-PK1 cell lysates; type: cell-based
Experimental: FIG. 3E, FIG. 3F, and FIG. 3G: Cells were exposed to media containing different concentrations of K^+ or Na^+, and then lysed. Cell lysates were subjected to Western blot analyses of Src and ERKs as indicated. Quantitative data was presented as mean±S.E. of at three independent experiments. *, p<0.05; **, p<0.01.
To verify these findings, the inventors also conducted Western blot analyses of cell lysates after the cells were incubated in normal or low K^+ medium.

## CCN1C(=O)C=CC1=O [NEM, N-ethylmaleimide]
[1]
  Effect on activity of Na/K-ATPase-associated Src, Na/K-ATPase stabilized in E1P: completely inhibited

## [Be+2].[F-].[F-] [beryllium fluoride]
[1]
  Effect on activity of Na/K-ATPase-associated Src: sufficient to stimulate the Na/K-ATPase-associated Src

## STNCV EGTAR GIVVY TGD (STNCVEGTARGIVVYTGD; listed as Sus scrofa) [CD2C2, peptide derived from C-terminus of CD2 of Na/K-ATPase α1 subunit; ouabain antagonist]
[2]
  Antagonism of ouabain-induced Src activation: potent ouabain antagonist; also recorded: abolished ouabain-induced Src activation in a dose-dependent manner
[2]; listed as SEQ ID NO:1
  Antagonism of ouabain-induced Src activation: abolishes ouabain-induced Src stimulation
[3]
  Competition with binding of GST-CD2 to Src (Src in pull-down products): attenuates the binding of CD2 to Src; also recorded: able to compete with and block the binding of GST-CD2 to Src SH2 domain
[3]; listed as SEQ ID NO:1
  Competition with binding of GST-CD2 to Src (Src in pull-down products): disrupts the interaction of the ATPase CD2/Src SH2 domain

## Nc1ncnc2c1ncn2[C@@H]1O[C@H](COP(=O)(O)OP(=O)(O)NP(=O)(O)O)[C@@H](O)[C@H]1O [AMP-PNP, adenyl-5′-yl imidodiphosphate]
[1]
  Effect on activity of Na/K-ATPase-associated Src, Na/K-ATPase stabilized in E1P: completely inhibited

## C[C@@H]1O[C@@H](O[C@H]2C[C@@H](O)[C@]3(CO)[C@H]4[C@H](O)C[C@]5(C)[C@@H](C6=CC(=O)OC6)CC[C@]5(O)[C@@H]4CC[C@]3(O)C2)[C@H](O)[C@H](O)[C@H]1O [ouabain]
[1]
  Effect on activity of Na/K-ATPase-associated Src: able to stimulate the Na/K-ATPase-associated Src
[4]
  Effect on cellular Src activity and ERKs: stimulated cellular Src activity

## aluminum fluoride
[1]
  Effect on activity of Na/K-ATPase-associated Src: sufficient to stimulate the Na/K-ATPase-associated Src
